Legend:
intracellular esterases = assay: Relative stability and cleavage by intracellular esterases
Source text: Chemically reactive enzyme substrate compounds will covalently attach to a corresponding functional group of cell components, forming the complexes of enzyme substrates-cell components or enzyme products-cell components. Using enzyme substrate compounds to label reactive sites on the surface of cells, in cell membranes or in intracellular compartments such as organelles, or in the cell's cytoplasm, permits the determination of their presence or quantity, accessibility, or their spatial and temporal distribution in the sample. […] Photoreactive enzyme substrates can be used similarly to photolabel components of the outer membrane of biological cells or as photo-fixable polar tracers for cells.

CPA cells = assay: Absorption and emission spectra of cell lysates after incubating cells with the substrate; type: cell-based; settings: CPA cells incubated with compound (5 μM) for 1 h, lysed with 1% Triton X-100; pH=9.0 buffer
Description: CPA cells are incubated with Compound ES1 (5 μM) for 1 h, and lysed with 1% Triton® X-100. The cell lysates from the enzymatic hydrolysis of Compound ES1 have a maximum absorption around 409 nm, which matches very well the 405 nm violet laser excitation of a typical flow cytometer.
CPA cells are incubated with Compound ES7 (5 μM) for 1 h, and lysed with 1% Triton® X-100. The cell lysates from the enzymatic hydrolysis of ES7 have a maximum absorption around 416 nm, which matches very well the 405 nm violet laser excitation of a typical flow cytometer.

Jurkat cells = assay: Flow cytometric monitoring of cell proliferation after dye loading; type: cell-based; settings: Jurkat cells loaded with 5 μM dye loading solution at 37° C. for 1 hour; flow cytometric analysis
Description: Compound ES 9 is dissolved in anhydrous DMSO to make 5 mM stock solution, and diluted in PBS buffer to make 5 μM dye loading solution. Jurkat cells are loaded with the dye loading solution of Compound ES9 at 37° C. for 1 hour. The cells are washed with PBS buffer to remove serum. The resulted cells are cultured and passed for flow cytometric analysis as desired. Compound ES9 is used to monitor cell proliferation of nine passages.
ES compounds are retained by cells and shared by the daughter cells at each division, resulting in multimodal flow cytometric ES staining histograms, with each cell generation clustering around half the fluorescence intensity of the previous one. ES compounds are dissolved in anhydrous DMSO, and the stock solutions are used promptly. To prepare the cell working solutions (from 1 to 100 μM) the DMSO stock solutions of ES compounds are diluted with Hanks and 20 mM Hepes buffer (HHBS, pH 7 with 0.02% PF-127). The Jurkat cells are treated with test compounds for a desired period of time, and centrifuged give 1-5×10^5 cells per tube. The cells are resuspended in 500 μL of the ES compound working solutions, and incubated at room temperature or 37° C. for 5 to 10 min. […] The fluorescence of ES compound staining are monitored at Ex/Em=405/450 nm, 405/500 nm or 405/550 nm with a fluorescence microscope or a flow cytometer.

| stability relative to Compound ES 18 (intracellular esterases) | Structure (SMILES) | other results |
| --- | --- | --- |
| more stable than Compound ES 18 | CC(=O)OCOc1c(Cl)cc2cc(C(=O)ON3C(=O)CCC3=O)c(=O)oc2c1Cl [Compound 5] |  |
| more stable than Compound ES 18 | CC(=O)Oc1cc2oc(=O)c(C(=O)ON3C(=O)CCC3=O)cc2cc1Cl [ES1] | maximum absorption of cell lysates from the enzymatic hydrolysis (CPA cells): around 409 nm |
| more stable than Compound ES 18 | CC(=O)Oc1cc2oc(=O)c(-c3ccc(CCCCCC(=O)ON4C(=O)CCC4=O)s3)cc2cc1Cl [Compound 9] |  |
|  | CC(=O)Oc1c(F)cc2cc(C(=O)ON3C(=O)CCC3=O)c(=O)oc2c1F [ES18] | cleavage by intracellular esterases (intracellular esterases): cleaved by intracellular esterases more slowly |
|  | CC(=O)Oc1c(Cl)cc2cc(C(=O)NCCCCCN3C(=O)C=CC3=O)c(=O)oc2c1F [ES7] | maximum absorption of cell lysates from the enzymatic hydrolysis (CPA cells): around 416 nm |
|  | CC(=O)Oc1cc2oc(=O)c(-c3ccc(CCCCCC(=O)ON4C(=O)CCC4=O)s3)cc2cc1Cl [ES9] | passages over which cell proliferation is monitored (Jurkat cells): nine |
| more stable than Compound ES 18 | CC(=O)Oc1cc2oc(=O)c(-c3ccc(CCCCCC(=O)NCCN4C(=O)C=CC4=O)s3)cc2cc1Cl [Compound 10] |  |

Source: US8318953B2, “Reactive coumarin derivatives and their use in cellular analyses” (AAT Bioquest, Inc., priority 2010, dated 2012)
